From publication PMC3413214, “Structural and biochemical characterization of a trapped coenzyme A adduct of Caenorhabditis elegans glucosamine-6-phosphate N-acetyltransferase 1” (Acta Crystallographica Section D: Biological Crystallography, 2012)

Columns and labels:
[1] = target: T1, CeGNA1 (Caenorhabditis elegans, UniProt Q17427); assay: X-ray crystal structure, […] Å; MALDI-TOF mass spectrometry; type: binding; conditions: covalent; disulfide to Cys141, inactive enzyme, reversed by DTT; nonreducing crystallisation, pH 8.5
T1 construct: gene gna-1; full-length, 165 residues; GST fusion from pGEX-6P-1 in E. coli BL21(DE3) pLysS, GST cut with PreScission protease; homodimer; 18 876 Da by MALDI
T1 sequence (Q17427 whole entry, the tested form may be a part): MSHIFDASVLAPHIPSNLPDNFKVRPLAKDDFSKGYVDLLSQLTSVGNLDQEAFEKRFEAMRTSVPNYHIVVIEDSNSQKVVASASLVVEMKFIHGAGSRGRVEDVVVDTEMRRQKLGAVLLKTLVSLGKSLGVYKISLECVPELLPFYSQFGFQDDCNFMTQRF

[2] = target: T1, CeGNA1; assay: X-ray crystal structure, […] Å; type: binding; conditions: ternary product complex with CoA; acceptor (GlcN-6P) subsite at dimer interface; crystals at pH 8.5

Compound | X-ray crystal structure, 1.55 Å; MALDI-TOF mass spectrometry [1] | X-ray crystal structure, 1.75 Å [2]
CC(C)(COP(=O)(O)OP(=O)(O)OC[C@H]1O[C@@H](n2cnc3c(N)ncnc32)[C@H](O)[C@@H]1OP(=O)(O)O)[C@@H](O)C(=O)NCCC(=O)NCCS [CoA] | the CoA thiol has formed a covalent complex with the enzyme through a disulfide | 
CC(=O)N[C@H]1C(O)O[C@H](COP(=O)(O)O)[C@@H](O)[C@@H]1O (some centres unmarked) [GlcNAc-6P] |  | occupied by the products CoA and GlcNAc-6-phosphate, both with well defined electron density
